Experimental data from patent US9561201B2, “Therapeutic compounds” (Fibrotech Therapeutics Pty Ltd, priority 2006, dated 2017).
“Also recorded” adds a separate entry of the source.

Key:
[1] = system: SD rats post myocardial infarction (LAD ligation); experiment: Myocardial infarct rats treated with FT011; format: in vivo
Method: Twenty rats underwent ligation of left anterior descending coronary artery (LAD) to induce anterior myocardial infarction (MI). Briefly, surgery performed under aseptic conditions on a heated table (37° C.) to maintain body warmth during the course of the procedure. The chest swabbed with chlorhexidine in 70% ethanol to disinfect the area. An incision made into the skin to the left of the sternum and the underlying muscle layers blunt dissected. A thoracotomy performed through the fourth to fifth intercostal space and the ribs held open using retractors to enable access to the heart. The pericardial sac surrounding the heart torn open and a 6-0 prolene suture used to ligate the LAD immediately. Visible blanching and hypokinesis of the anterior wall of the left ventricle and swelling of the left atrium are indicative of successful ligation. The control groups (sham+vehicle, sham+FT011) underwent a sham operation consisting of the same procedure except that the suture passed through the myocardium beneath the LAD without ligation.
Echocardiography was performed on all animals 2 days post surgery and randomised to sham and MI groups. Animals were re-randomised at day 7 post surgery (10 animal each) to receive: vehicle or FT011 (100 mg/kg bid gavage). Every week, systolic blood pressure (SBP) was determined in preheated conscious rats via tail-cuff plethysmography using a non-invasive blood pressure (NIBP) controller and Powerlab (AD instruments, NSW, Australia). Cardiac function was assessed by echocardiography and cardiac catheterization prior to sacrificing at day 35 post surgery for all animals.
Echocardiography, including Doppler examination, was performed using a Vivid 7 Dimension (GE Vingmed, Horten, Norway) echocardiograph with a 10 MHz phased array probe. Electrocardiographic data were acquired simultaneously. End-diastole was defined as the peak of the R wave, and end-systole was defined as the end of the T wave.
Animals were anaesthetized with pentobarbitone sodium 60 mg/kg i.p. injection. Animals underwent echocardiographic interrogation in the left recumbent position. M-mode echocardiography was performed using a parasternal short axis view at the level of the papillary muscles. Left ventricular posterior (LVPW) and anterior wall thickness (LVAW) were obtained during diastole (d) and systole (s), as were the left ventricular internal diameter at end-diastole (LVIDd) and end-systole (LVIDs). From the para-sternal short axis view, the end diastolic and end systolic cross sectional blood pool areas were measured. Fractional area change (FAC) was then calculated according to the formulae: FAC=[(end-diastolic area-end-systolic area)/end-diastolic area]*100.
The apical 4-chamber view was used to assess early and late transmitral peak diastolic flow velocity (E and A waves), using pulsed wave Doppler with a sample volume of 2 mm placed at the tips of the mitral valve leaflets. All Doppler spectra were recorded for 10 cardiac cycles at a sweep speed of 200 mm/s. All parameters were assessed using an average of three beats, and calculations were made in accordance with the American Society of Echocardiography guidelines. All data were acquired and analyzed by a single blinded observer using EchoPAC (GE Vingmed) offline processing.
Post echocardiography, animals were placed on a warming pad (37° C.), intubated using a 14 gauge catheter, and ventilated using positive pressure with a tidal volume of […] at 70 breaths per minute using room air. Animals were secured in a recumbent position and the right jugular vein was cannulated with 0.9% NaCl infused at 100 μL per hour. […] The right internal carotid was then identified and ligated cranially. A 2F miniaturized combined conductance catheter-micromanometer was inserted into the carotid artery to obtain aortic blood pressure, then advanced into the left ventricle until stable pressure volume (PV) loops were obtained.

[2] = Pilot study (toxicity assessment), 2 weeks oral gavage; format: in vivo, Sprague-Dawley (SD) rats; details: for ALT / Body weight / Plasma Creatinine / Plasma Urate: 2 weeks
Method: A total of twenty male Sprague-Dawley (SD) rats weighing 200-250 g were randomised to either FT011 (Fibrotech Therapeutics Pty Ltd, Melbourne, Australia) or Tranilast (Pharm Chemical, Shanghai Lansheng Corporation, China) at the dose of 50 mg, 100 mg, 200 mg and 400 mg/kg/day by gavage twice daily (n=2-3 per group). A control group of animals were gavaged with vehicle (1% carboxy methyl cellulose). The study was conducted for 2 weeks. Animals were bled daily at one, four, and eight hours after oral gavage to measure the plasma concentration. Serum was also collected to assess renal and liver function at the end of the study (plasma creatine and urate, ALT and bilirubin). Rats were individually housed in metabolic cages at the end of the study, habituated for 2 to 3 hours, and urine collected over 24 hours. Animals continued to have free access to tap water and standard laboratory chow during this period. The biochemistry tests performed at the department of pathology, St Vincent's hospital. Major organs including lung, heart, liver, spleen and kidney were harvested and immersed fix with 10% neutral buffered formalin and then embedded paraffin for subsequent light microscope examination.

[3] = system: mesangial cell line (1097); experiment: TGF-β induced 3H-proline incorporation in cultured rat mesangial cells (Example 2); format: cell-based, Sprague-Dawley rats; details: renal mesangial cells, from 30 to 100 μM
Method: The anti-fibrotic effects of 3-methoxy-4-propargyloxybenzaldehyde (FT011) in a renal cell line were tested by measuring proline incorporation after transforming growth factor-β stimulation.
A well-characterized cloned mesangial cell line (1097) isolated from Sprague-Dawley rats was used between passages 30 and 40. Cells were cultured in Dulbecco's Modified Eagle's (DME) medium (Invitrogen, Grand Island, N.Y.) with heat-inactivated fetal bovine serum (FBS), 100 u/mL penicillin and 100 ug/mL streptomycin in a humidified 5% CO2 atmosphere at 37° C.
To compare the effects of tranilast and FT011 on collagen production in vitro, incorporation of tritiated proline was used. Mesangial cells were plated at low density into 24-well culture plates in DME/5% FBS and allowed to adhere overnight. The subconfluent cells were starved overnight in DME/0.5% FBS and […] L-ascorbic acid (Sigma-Aldrich). Tranilast or FT011 was then added to the wells, followed 4 hours later by L-[2,3,4,5-^3H]-proline, 0.5 μCi/well (Amersham) and TGF-β1, 5 ng/ml (R & D systems). Mesangial cells were harvested 48 hours post-stimulation, washed three times with ice cold PBS, and incubated with 10% trichloroacetic acid (TCA) for 30 minutes on ice, followed by a wash in ice cold 10% TCA. Cells were then solubilised in […] 1M NaOH. […]

[4] = MI rats, 100 mg/kg bid gavage from day 7, day 35 post surgery
[5] = MI rats, 100 mg/kg bid gavage, echocardiography
[6] = MI rats, 100 mg/kg bid gavage, listed as FT011, 100 mg/kg

C#CCOc1ccc(/C=C/C(=O)Nc2ccccc2C(=O)O)cc1OC [Analogue 11]
Myocardial infarct size, treated versus untreated MI groups ([1]; 100 mg/kg bid gavage, P=0.36): similar | LVED ([1]; MI rats, 100 mg/kg bid gavage): 0.53 ± 0.04 mL | LVES ([1]; MI rats, 100 mg/kg bid gavage): 0.15 ± 0.02 mL | LV/BW [1, 4]: 0.22 ± 0.004 | RV/BW [1, 4]: 0.048 ± 0.002 | adverse LV remodelling on echocardiography (LVIDd, LVIDs, FAC, E:A ratio, deceleration time) ([1]; MI rats, 100 mg/kg bid gavage, 5 weeks post MI): significantly attenuated | Deceleration time [1, 5]: 38.64 ± 1.2 ms | E:A ratio [1, 5]: 2.00 ± 0.26 | FAC % [1, 5]: 42.69 ± 2.3 % | LVIDd [1, 5]: 0.92 ± 0.03 cm | LVIDs [1, 5]: 0.70 ± 0.03 cm | collagen subtype I and III immunostaining in non-infarct zone [1, 6]: reduction in immunostaining; also recorded: attenuated | infiltration of ED-1 positive macrophages in non-infarct zone [1, 6]: reduction in macrophage number; also recorded: attenuated | interstitial fibrosis in non-infarct zone (Masson's trichrome) [1, 6]: marked reduction; also recorded: attenuated | ALT ([2]; 50 mg/kg/day gavage): 41 ± 1 | Body weight ([2]; 50 mg/kg/day gavage): 313 ± 24 Gram | Plasma Creatinine ([2]; 50 mg/kg/day gavage): 38 ± 2 µmol/L | Plasma Urate ([2]; 50 mg/kg/day gavage): <0.09 mmol/L | ALT ([2]; 100 mg/kg/day gavage): 44 ± 2 | Body weight ([2]; 100 mg/kg/day gavage): 308 ± 22 Gram | Plasma Creatinine ([2]; 100 mg/kg/day gavage): 39 ± 0.5 µmol/L | Plasma Urate ([2]; 100 mg/kg/day gavage): <0.09 mmol/L | ALT ([2]; 200 mg/kg/day gavage): 36 ± 0.5 | Body weight ([2]; 200 mg/kg/day gavage): 301 ± 8 Gram | Plasma Creatinine ([2]; 200 mg/kg/day gavage): 37 ± 0.6 µmol/L | Plasma Urate ([2]; 200 mg/kg/day gavage): <0.09 mmol/L | ALT ([2]; 400 mg/kg/day gavage): 32 ± 4.4 | Body weight ([2]; 400 mg/kg/day gavage): 264 ± 29 Gram | Plasma Creatinine ([2]; 400 mg/kg/day gavage): 36 ± 3.9 µmol/L | Plasma Urate ([2]; 400 mg/kg/day gavage): <0.09 mmol/L | level of FT011 measured in plasma ([2]; following gavage, 50-400 mg/kg/day): increased in a dose dependent manner | level of FT011 measured in urine ([2]; rats treated with FT011, 24 h urine): significant level | proline incorporation after TGF-β stimulation [3]: significantly reduce
